Test results as given in PubChem BioAssay AID1259407 (Chemical Carcinogenesis Research Information System (CCRIS), 2018).
Activity calls are given as the source filed them. The rule behind the calls is not given here.

Tested on: CCRIS mutagenicity, Ames/micronucleus/aberration tests
Experiment: CCRIS mutagenicity studies

Measured: mutagenic call

CN(N=O)C(N)=O
active: End Point: IN VITRO CHROMOSOMAL ABERRATIONS, Test System: CHINESE HAMSTER V79-E CELLS, Metabolic Activation: NONE active; positive | End Point: IN VITRO CHROMOSOMAL ABERRATIONS, Test System: V79 CELLS (V79-C10), Metabolic Activation: NONE active; positive | End Point: IN VITRO MICRONUCLEUS, Test System: CHINESE HAMSTER V79 CELLS, Metabolic Activation: NONE active; positive at the cytotoxic dose of 0.8 mm | End Point: IN VITRO MICRONUCLEUS, Test System: MOUSE LYMPHOMA L5178Y CELLS, Metabolic Activation: NONE active; positive | End Point: Mutagenicity, Test System: Spleen: t-lymphocytes/hprt mutants, Species: Rat, Strain/Sex: Wistar/male, Route: Intraperitoneal active; positive; mutation induction dramatically lower following subchronic treatment; | Test System: AMES SALMONELLA TYPHIMURIUM, Strain/Indicator: G46, Metabolic Activation: NONE, Method: STANDARD PLATE active; positive | Test System: AMES SALMONELLA TYPHIMURIUM, Strain/Indicator: TA100, Metabolic Activation: NONE, Method: LIQUID INCUBATION active; positive | Test System: AMES SALMONELLA TYPHIMURIUM, Strain/Indicator: TA100, Metabolic Activation: NONE, Method: STANDARD PLATE active; positive | Test System: AMES SALMONELLA TYPHIMURIUM, Strain/Indicator: TA100, Metabolic Activation: RAT, LIVER, S-9, AROCLOR 1254, Method: PREINCUBATION active; positive | Test System: AMES SALMONELLA TYPHIMURIUM, Strain/Indicator: TA100, Metabolic Activation: RAT, LIVER, S-9, KC500 OR PHENOBARBITAL, Method: LIQUID SUSPENSION active; positive | Test System: AMES SALMONELLA TYPHIMURIUM, Strain/Indicator: TA100, Metabolic Activation: RAT, LIVER, S-9, PHENOBARBITAL, Method: STANDARD PLATE active; positive | Test System: AMES SALMONELLA TYPHIMURIUM, Strain/Indicator: TA102, Metabolic Activation: RAT, LIVER, S-9, AROCLOR 1254, Method: PREINCUBATION active; positive | Test System: AMES SALMONELLA TYPHIMURIUM, Strain/Indicator: TA104, Metabolic Activation: NONE, Method: PREINCUBATION active; positive | Test System: AMES SALMONELLA TYPHIMURIUM, Strain/Indicator: TA104, Metabolic Activation: RAT, LIVER, S-9, AROCLOR 1254, Method: PREINCUBATION active; positive | Test System: AMES SALMONELLA TYPHIMURIUM, Strain/Indicator: TA1530, Metabolic Activation: NONE, Method: PREINCUBATION active; positive | Test System: AMES SALMONELLA TYPHIMURIUM, Strain/Indicator: TA1530, Metabolic Activation: NONE, Method: STANDARD PLATE active; positive | Test System: AMES SALMONELLA TYPHIMURIUM, Strain/Indicator: TA1535, Metabolic Activation: NONE, Method: LIQUID INCUBATION active; positive | Test System: AMES SALMONELLA TYPHIMURIUM, Strain/Indicator: TA1535, Metabolic Activation: NONE, Method: PREINCUBATION active; positive | Test System: AMES SALMONELLA TYPHIMURIUM, Strain/Indicator: TA1535, Metabolic Activation: NONE, Method: STANDARD PLATE active; positive | Test System: AMES SALMONELLA TYPHIMURIUM, Strain/Indicator: TA1535, Metabolic Activation: RAT, LIVER, S-9, PCB OR PHENOBARBITAL, Method: STANDARD PLATE active; positive | Test System: AMES SALMONELLA TYPHIMURIUM, Strain/Indicator: YG7100, Metabolic Activation: NONE, Method: PREINCUBATION active; positive | Test System: AMES SALMONELLA TYPHIMURIUM, Strain/Indicator: YG7104, Metabolic Activation: NONE, Method: PREINCUBATION active; positive | Test System: AMES SALMONELLA TYPHIMURIUM, Strain/Indicator: YG7108, Metabolic Activation: NONE, Method: PREINCUBATION active; positive | Test System: AMES SALMONELLA TYPHIMURIUM, Strain/Indicator: YG7112, Metabolic Activation: NONE, Method: PREINCUBATION active; positive | Test System: AMES SALMONELLA TYPHIMURIUM, Strain/Indicator: YG7113, Metabolic Activation: NONE, Method: PREINCUBATION active; positive | Test System: AMES SALMONELLA TYPHIMURIUM, Strain/Indicator: YG7119, Metabolic Activation: NONE, Method: PREINCUBATION active; positive | Test System: CHINESE HAMSTER OVARY, Strain/Indicator: CHO-K1-BH4 (HGPRT), Metabolic Activation: NONE, Method: SUSPENSION/PLATE active; positive | Test System: CHINESE HAMSTER V-79, Strain/Indicator: V-79/6-THIOGUANINE, Metabolic Activation: NONE, Method: FLASK ASSAY active; positive | Test System: CHINESE HAMSTER V-79, Strain/Indicator: V-79/6-THIOGUANINE, Metabolic Activation: NONE, Method: STANDARD PLATE active; positive | Test System: CHINESE HAMSTER V-79, Strain/Indicator: V-79/8-AZAGUANINE, Metabolic Activation: NONE, Method: STANDARD PLATE active; positive | Test System: CHINESE HAMSTER V-79, Strain/Indicator: V-79/OUABAIN, Metabolic Activation: NONE active; positive | Test System: CHO/HGPRT, Strain/Indicator: CHO-K1-BH4, Metabolic Activation: NONE active; positive | Test System: CHO/HGPRT, Strain/Indicator: CHO-K1-BH4, Metabolic Activation: NONE, Method: STANDARD PLATE active; positive | Test System: E. COLI, Strain/Indicator: H/R30R, Metabolic Activation: NONE active; positive | Test System: E. COLI, Strain/Indicator: H/R30R, Metabolic Activation: NONE, Method: PREINCUBATION active; positive | Test System: E. COLI, Strain/Indicator: HS30R UVRA, Metabolic Activation: NONE, Method: PREINCUBATION active; positive | Test System: E. COLI, Strain/Indicator: HS30R, Metabolic Activation: NONE active; positive | Test System: E. COLI, Strain/Indicator: NG30 RECA, Metabolic Activation: NONE, Method: PREINCUBATION active; positive | Test System: E. COLI, Strain/Indicator: O16 POLA, Metabolic Activation: NONE, Method: PREINCUBATION active; positive | Test System: E. COLI, Strain/Indicator: WP2, Metabolic Activation: NONE, Method: FLUCTUATION active; positive | Test System: E. COLI, Strain/Indicator: WP2, Metabolic Activation: NONE, Method: STANDARD PLATE active; positive | Test System: E. COLI, Strain/Indicator: WP2 UVRA, Metabolic Activation: NONE, Method: FLUCTUATION active; positive | Test System: E. COLI, Strain/Indicator: WP2 UVRA, Metabolic Activation: NONE, Method: STANDARD PLATE active; positive | Test System: LacZ transgenic mouse (Muta Mouse), Strain/Indicator: LacZ Mutant frequency, Method: Liver and kidney harvested 37 days after last dose active; positive in kidney. no increase in mutation frequency in liver. | Test System: UDS HUMAN CELLS, Strain/Indicator: THY INCORP (NON-S-PHASE), Metabolic Activation: NONE, Method: LIQUID SCINTILLATION COUNTING active; positive | Test System: UDS HUMAN FIBROBLASTS, Strain/Indicator: THY INCORP (NON-S-PHASE), Metabolic Activation: NONE, Method: AUTORADIOGRAPHY active; positive | Test System: UDS MOUSE SPERMATOGONIAL AND POSTSPERMATOGONIAL CELLS IN VIVO, Strain/Indicator: THYMIDINE INCORPORATION, Metabolic Activation: NONE, Method: AUTORADIOGRAPHY active; positive | Test System: UDS RODENT CELLS, Strain/Indicator: THY INCORP (NON-S-PHASE), Metabolic Activation: NONE, Method: LIQUID SCINTILLATION COUNTING active; positive
